Experimental data: patent publication US11180528B2 (priority 2018, dated 2021)
Values after ≈ are worked out from the molar mass of the structure shown. “Also recorded” adds a separate entry of the source. Read-outs that look alike come from different tables or passages of the source. Ends that are not written are not given here.

What was measured:
F. tularensis LVS [1] = system: F. tularensis LVS
F. tularensis LVS [2] = system: F. tularensis LVS; remark: listed apart in the source
[3] = system: F. tularensis tularensis SchuS4
F. tularensis LVS [4] = conditions: mouse, in vivo
F. tularensis LVS [5] = conditions: mouse, in vivo; cited from earlier work
[6] = system: F. tularensis tularensis SchuS4; remark: listed apart in the source
G. mellonella larvae = conditions: in vivo
[7] = system: A549 human lung epithelial cells
F. tularensis LVS [8] = system: F. tularensis LVS; parameters: species or system Galleria mellonella; conditions: in vivo
E. coli LPS = format: binding
F. tularensis LVS LPS = format: binding, Francisella tularensis subsp. holarctica
F. tularensis LVS [9] = format: cell-based, Francisella tularensis subsp. holarctica
F. tularensis LVS [10] = format: cell-based, Francisella tularensis subsp. holarctica; remark: listed apart in the source

Row | Compound | MIC / inhibitory activity in broth (F. tularensis LVS [1]) | EC50 (95% CI) [μg/ml] (F. tularensis LVS [2]) | EC50 (F. tularensis LVS [2]; 3 h) | EC50 (95% CI) [μg/ml] (F. tularensis NIH B38) | EC50 (F. tularensis NIH B38; 3 h) | EC50 [3] | MIC [6] | EC50 (95% CI) (F. tularensis LVS [2]; 3 h) | further results
1 | KTRNWFSQHFKKVKQKLKNTFA [GATR-2] | inactive | 2.4 (1.5-3.7) μg/ml | 860 nM | 11 (7.7-15) μg/ml | 3900 nM | – | – | – | –
2 | CC[C@H](C)[C@H](NC(=O)[C@H](CCCCN)NC(=O)[C@H](CCC(=O)O)NC(=O)[C@H](CCCCN)NC(=O)[C@H](CO)NC(=O)[C@H](CCCCN)NC(=O)[C@H](CCCNC(=N)N)NC(=O)[C@H](Cc1ccccc1)NC(=O)[C@H](Cc1ccccc1)NC(=O)[C@H](CC(=O)O)NC(=O)CNC(=O)[C@H](CC(C)C)NC(=O)[C@@H](N)CC(C)C)C(=O)NCC(=O)N[C@@H](CCCCN)C(=O)N[C@@H](CCC(=O)O)C(=O)N[C@@H](Cc1ccccc1)C(=O)N[C@@H](CCCCN)C(=O)N[C@@H](CCCNC(=N)N)C(=O)N[C@H](C(=O)N[C@H](C(=O)N[C@@H](CCC(N)=O)C(=O)N[C@@H](CCCNC(=N)N)C(=O)N[C@H](C(=O)N[C@@H](CCCCN)C(=O)N[C@@H](CC(=O)O)C(=O)N[C@@H](Cc1ccccc1)C(=O)N[C@@H](CC(C)C)C(=O)N[C@@H](CCCNC(=N)N)C(=O)N[C@@H](CC(N)=O)C(=O)N[C@@H](CC(C)C)C(=O)N[C@H](C(=O)N1CCC[C@H]1C(=O)N[C@@H](CCCNC(=N)N)C(=O)N[C@H](C(=O)N[C@@H](CCC(=O)O)C(=O)N[C@@H](CO)C(=O)O)[C@@H](C)O)C(C)C)[C@@H](C)CC)C(C)C)[C@@H](C)CC [LL-37] | – | 0.21 (0.14-0.31) μg/ml | 47 nM | 0.13 (0.076-0.21) μg/ml | 28 nM | 0.125 µM | – | – | EC50 (95% CI) [μg/ml] [3]: 0.562 (0.195 to 1.61) μg/ml; EC50 (95% CI) (F. tularensis LVS [2]): 0.209 µg/mL (≈ 0.0465 µM); severity of signs of disease (health scores) (F. tularensis LVS [4]): nor did these peptides lessen signs of disease; mean time till death and survival (F. tularensis LVS [5]): extended mean time till death but did not increase survival; also recorded: significantly extended mean time to death, but did not ultimately rescue any mice
3 | KFRNWFSEHFKKFKEKLKDTFA [GATR-1] | inactive | 0.76 (0.54-1.1) μg/ml | 260 nM | 16 (9.5-27) μg/ml | 5620 nM | – | – | – | –
4 | KFRNWFSQHWRRWRQRLRNTWA [GATR-6] | – | – | 290 nM | – | 51 nM | 10.4 µM | >83.3 µg/mL | – | mean time till death (MTD) (F. tularensis LVS [4]): 6 days
5 | FSTKTRNWFSEHFKKVKEKLKDTFA [Apo5, reference compound] | – | – | – | – | – | – | – | ~6 µg/mL | EC50 (95% CI) (F. tularensis NIH B38; 3 h): ~16 µg/mL
6 | NPKTRNWFSEHFKKVKEKLKDTFA [GATR-4] | inactive | – | 3700 nM | – | – | – | – | 11.0 µg/mL | EC50 [μM] (F. tularensis NIH B38): Not active
7 | KFRNWFSQHWKKWKQKLKNTWA [GATR-5] | – | – | 260 nM | – | 650 nM | – | – | – | survival of larvae (toxicity) (G. mellonella larvae): 30%
8 | RWRNWWSQRWRRWRQRLRNTWA [GATR-7] | – | – | 320 nM | – | 530 nM | 7.47 µM | 41.7 µg/mL | – | inhibition (F. tularensis LVS [1]; 41.5 μg/ml): 85%; suppression of cell proliferation [7]: some statistically significant suppression of cell proliferation; death of larvae (toxicity) (G. mellonella larvae): not found to have significant death
9 | KFRNWFSQHFKKFKQKLKNTFA [GATR-3] | – | – | 190 nM | – | 280 nM | 10 µM | >83.3 µg/mL | – | –
10 | KTRNWFSEHFKKVKEKLKDTFA [Apo6] | no observable MIC | 6.8 (5.9-7.8) μg/ml | 2500 nM | 16 (8.6-31) μg/ml | 5890 nM | – | – | ~6 µg/mL | survival of infected larvae (F. tularensis LVS [8]): 60%; LPS binding (E. coli LPS): did not bind; EC50 [μM] [3]: Not active; LPS binding (F. tularensis LVS LPS): does not significantly bind; EC50 (95% CI) (F. tularensis LVS [2]): 6.82 µg/mL; efficacy in murine studies (F. tularensis LVS [4]): not reliably effective; pore formation (change in RFU) (F. tularensis LVS [9]): significant pore formation; also recorded: significant membrane disruption; dissipation of membrane potential (F. tularensis LVS [10]): dissipated the membrane potential; EC50 (95% CI) (F. tularensis NIH B38): 16.3 µg/mL; EC50 (95% CI) (F. tularensis NIH B38; 3 h): ~16 µg/mL
